Source: US6815464B2, “Carbamate compounds for use in the treatment of pain” (Ortho-McNeil Pharmaceutical, Inc., priority 2001, dated 2004)
Marks after values point to notes of the source that are not given here.

System: sciatic nerve loose ligation in rats
Assay: Bennett model (Chronic Constrictive Injury), thermal stimulation, paw-withdrawal latency
Type: in vivo
Conditions: rat; for Antihyperalgesic Effectiveness (% Effective): vs vehicle control; for anti-hyperalgesic effect against a thermal stimulation challenge: p.o., summary statement in words
Source text: Bennett Model (Chronic Constrictive Injury)
The Bennett model consists of sciatic nerve loose ligation in rats (Bennett G J and Xie Y K, A peripheral mononeuropathy in rat that produces disorders of pain sensation like those seen in man, Pain, 1988, 33, 87-107). Although the pharmacological profile of the spontaneous pain, protective posture and allodynia (minor) is similar to that of clinical neuropathic pain, the loose chronic ligature of sciatic nerve in the Bennett model causes greater thermal hyperalgesia than mechanical allodynia due to its inflammatory mechanism. The loose ligation causes the constriction/swelling followed by inflammation at the ligation site, a condition most commonly associated with various types of pain. The behavioral response to the ligature is one of hyperalgesia. Thus, anti-hyperalgesia reduces chronic signs of pain hypersensitivity. Therefore, the Bennett model is used to evaluate antinociceptive pain (Cui J G, Possible role of inflammatory mediators in tactile hypersensitivity in rat models of mononeuropathy, Pain, 2000, 88 (3), 239-248; Lovell J A, Changes in Spinal Serotonin Turnover Mediate Age-Related Differences in the Behavioral Manifestations of Peripheral Nerve Injury, Pharmacol. Biochem. Behav., 2000, 66 (4), 873-878; Yasuda T, The novel analgesic compound OT-7100[5-n-butyl-7-(3,4,5-trimethoxybenzoylamino)pyrazolo[1,5a]pyrimidine] attenuates mechanical nociceptive responses in animal models of acute and peripheral neuropathic hyperalgesia, J. Pharmacol., 1999, 79 (1), 65-73; Toda K, Antinociceptive effects of neurotropin in a rat model of painful peripheral mononeuropathy, Life Sci., 1998, 62 (10), 913-921; Munglani R, Neuropeptide changes persist in spinal cord despite resolving hyperalgesia in a rat model of mononeuropathy, Brain Res., 1996, 743, 1 (2), 102-108).
[…] The anti-hyperalgesia effect was assessed at 30, 60, and 90 minutes after the oral administration.
Rats (180-220 g body weight) were anesthetized (sodium pentobarbital, 40 mg/kg, ip) and an incision was made at the mid-thigh level to expose the common left sciatic nerve. Four ligatures spaced 1 mm apart were loosely tied around the sciatic nerve. The wound was then sutured. The rats received an i.m. injection of 50,000 IU Penicillin and were allowed to recover after this procedure. At least one week after the surgery, when the chronic state was fully established, rats were consecutively submitted to thermal stimulation of both the non-lesioned and the lesioned hind-paws. The apparatus (UgoBasil, Reference: 7371) consists of 6 individual Plexiglas boxes (17×13×13 cm) placed upon an elevated glass floor. The rat was placed in the box and allowed to habituate for 10 minutes. A mobile infrared radiant source (setting 20) was then focused under the non-lesioned and lesioned hind-paws and the paw-withdrawal latencies in seconds were automatically recorded. The test was performed in a blinded fashion. The increased latency in treated animals as compared to control animals (those receiving only vehicle) was expressed as % of effectiveness of the drug. Data were analyzed by comparing the treated lesion group with controls using unpaired Student's t-test.

[1] = 10 mg/kg p.o., 60 min after administration
[2] = 10 mg/kg p.o., 90 min after administration
[3] = 30 mg/kg p.o., 30 min after administration
[4] = 30 mg/kg p.o., 60 min after administration
[5] = 30 mg/kg p.o., 90 min after administration
[6] = 300 mg/kg p.o., 30 min after administration
[7] = 300 mg/kg p.o., 60 min after administration
[8] = 300 mg/kg p.o., 90 min after administration

Compound	Antihyperalgesic Effectiveness (% Effective) [1] [%]	Antihyperalgesic Effectiveness (% Effective) [2] [%]	Antihyperalgesic Effectiveness (% Effective) [3] [%]	Antihyperalgesic Effectiveness (% Effective) [4]	Antihyperalgesic Effectiveness (% Effective) [5]	Antihyperalgesic Effectiveness (% Effective) [6] [%]	Antihyperalgesic Effectiveness (% Effective) [7]	Antihyperalgesic Effectiveness (% Effective) [8] [%]	anti-hyperalgesic effect against a thermal stimulation challenge
NC(=O)OC[C@H](OC(N)=O)c1ccccc1Cl [Formula (IIb)]	121	50	61	318** %	182** %	48	198** %	69	anti-hyperalgesic effect
NC(=O)OC[C@@H](O)c1ccccc1Cl [Formula (Ib)]	79	53	59	109%	107%	43	314** %	151	anti-hyperalgesic effect
